Assay results as given in PubChem BioAssay AID248 (DTP/NCI, 2004).
Values joined by “and” are separate entries in the source; they are usually repeats but may differ in a detail not shown here. Equal values may be shown once. Inconclusive results and toxic doses are left out. Cut-off read from the data, not from the text of the source: active = T/C of 150% or more; inactive = T/C below 125%.

Tested on: L1210 leukemia ip in BDF1 mice, survival T/C
Assay: NCI In Vivo Anticancer Drug Screen. Data for tumor model L1210 Leukemia (intraperitoneal) in B6D2F1 (BDF1) mice
Conditions: endpoint: mean survival time, higher = longer survival
Procedure, shortened: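 Transplanted-tumor mice were given test agent; controls received vehicle only. Survival readings from the two groups were divided (treated over control).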

[1] = dose: 100.0 mg/kg/injection, schedule: Q04DX002 (ip), vehicle: saline
[2] = dose: 200.0 mg/kg/injection, schedule: Q04DX002 (ip), vehicle: saline
[3] = dose: 400.0 mg/kg/injection, schedule: Q04DX002 (ip), vehicle: saline

Measured: T/C

CCCCCCCCCCCCCCCC(=O)Nc1cccc2c[n+](CC(=O)c3ccc(NC(=O)CCC(=O)OC)cc3)ccc12
inactive: dose: 100.0 mg/kg/injection, schedule: Q01DX009 (ip), vehicle: saline with Tween-80 87 % of control | dose: 400.0 mg/kg/injection, schedule: Q01DX009 (ip), vehicle: saline with Tween-80 91 % of control | dose: 400.0 mg/kg/injection, schedule: Q04DX003 (ip), vehicle: saline with Tween-80 94 % of control

O=C1C=CC(=O)C2C3C=CC(C3)C12 (configuration not stated)
inactive: dose: 25.0 mg/kg/injection, schedule: Q01DX009 (ip), vehicle: Klucel (hydroxypropylcellulose) (HPC) 102 % of control | dose: 50.0 mg/kg/injection, schedule: Q01DX009 (ip), vehicle: Klucel (hydroxypropylcellulose) (HPC) 98 % of control | dose: 100.0 mg/kg/injection, schedule: Q01DX009 (ip), vehicle: Klucel (hydroxypropylcellulose) (HPC) 94 % of control and 102 % of control

COc1ccc(C(=O)OCc2ccccc2CN2CCCCC2C)cc1 (configuration not stated)
inactive: [1] 94 % of control | [2] 108 % of control | [3] 86 % of control

Cn1ccnc1Oc1ccc(Cl)cc1
inactive: dose: 12.5 mg/kg/injection, schedule: Q04DX002 (ip), vehicle: Klucel (hydroxypropylcellulose) (HPC) 106 % of control | dose: 50.0 mg/kg/injection, schedule: Q04DX002 (ip), vehicle: Klucel (hydroxypropylcellulose) (HPC) 100 % of control

CCOC(=O)c1c(-c2ccc([N+](=O)[O-])cc2)cn(-c2ccccc2)c1C
inactive: dose: 100.0 mg/kg/injection, schedule: Q04DX002 (ip), vehicle: Klucel (hydroxypropylcellulose) (HPC) 91 % of control | dose: 200.0 mg/kg/injection, schedule: Q04DX002 (ip), vehicle: Klucel (hydroxypropylcellulose) (HPC) 97 % of control | dose: 400.0 mg/kg/injection, schedule: Q04DX002 (ip), vehicle: Klucel (hydroxypropylcellulose) (HPC) 87 % of control

CCCCCCC(=O)N(CC)CC
inactive: [1] 94 % of control | [2] 98 % of control | [3] 91 % of control

CNC(=O)N(C)C1C(OC)OC2COC(c3ccccc3)OC2C1O (configuration not stated)
inactive: dose: 25.0 mg/kg/injection, schedule: Q01DX009 (ip), vehicle: saline 100 % of control | dose: 50.0 mg/kg/injection, schedule: Q01DX009 (ip), vehicle: saline 105 % of control | dose: 100.0 mg/kg/injection, schedule: Q01DX009 (ip), vehicle: saline 100 % of control | dose: 200.0 mg/kg/injection, schedule: Q01DX009 (ip), vehicle: saline 100 % of control

Cc1cc(C)c([I+]c2c(C)cc(C)cc2C)c(C)c1
inactive: dose: 0.12 mg/kg/injection, schedule: Q01DX009 (ip), vehicle: saline 102 % of control | dose: 0.25 mg/kg/injection, schedule: Q01DX009 (ip), vehicle: saline 111 % of control | dose: 0.5 mg/kg/injection, schedule: Q01DX001 (ip), vehicle: saline 90 % of control | dose: 0.5 mg/kg/injection, schedule: Q01DX009 (ip), vehicle: saline 122 % of control | dose: 0.5 mg/kg/injection, schedule: Q01DX015 (ip), vehicle: saline 100 % of control | dose: 0.5 mg/kg/injection, schedule: Q04DX003 (ip), vehicle: acetone 111 % of control | dose: 1.0 mg/kg/injection, schedule: Q01DX001 (ip), vehicle: saline 101 % of control | dose: 1.0 mg/kg/injection, schedule: Q01DX015 (ip), vehicle: saline 96 % of control | dose: 2.0 mg/kg/injection, schedule: Q01DX001 (ip), vehicle: saline 92 % of control | dose: 2.0 mg/kg/injection, schedule: Q01DX015 (ip), vehicle: saline 102 % of control | dose: 4.0 mg/kg/injection, schedule: Q01DX015 (ip), vehicle: saline 103 % of control

Nc1ccc(C(=O)O)c(O)c1.Nc1ccc(C(=O)O)c(O)c1.[Na+].[O]=[V]
inactive: dose: 2.0 mg/kg/injection, schedule: Q01DX015 (ip), vehicle: carboxymethylcellulose (CMC) 98 % of control | dose: 4.0 mg/kg/injection, schedule: Q01DX015 (ip), vehicle: carboxymethylcellulose (CMC) 93 % of control | dose: 8.0 mg/kg/injection, schedule: Q01DX015 (ip), vehicle: carboxymethylcellulose (CMC) 100 % of control | dose: 16.0 mg/kg/injection, schedule: Q01DX015 (ip), vehicle: carboxymethylcellulose (CMC) 110 % of control and 113 % of control | dose: 32.0 mg/kg/injection, schedule: Q01DX015 (ip), vehicle: carboxymethylcellulose (CMC) 101 % of control
